{"source": "paper PMC5104425", "about": "“A Novel Selective Inhibitor of Delta-5 Desaturase Lowers Insulin Resistance and Reduces Body Weight in Diet-Induced Obese C57BL/6J Mice” (PLoS ONE, 2016)", "key": {"[1]": {"molecular_target": "T1, rat D5D (Rattus norvegicus, UniProt Q920R3)", "T1 construct": "using hepatic microsomes prepared from SD rats; from tissue; host or cells: liver microsomes of SD rats (CLEA, Japan)", "T1 sequence (Q920R3 whole entry)": "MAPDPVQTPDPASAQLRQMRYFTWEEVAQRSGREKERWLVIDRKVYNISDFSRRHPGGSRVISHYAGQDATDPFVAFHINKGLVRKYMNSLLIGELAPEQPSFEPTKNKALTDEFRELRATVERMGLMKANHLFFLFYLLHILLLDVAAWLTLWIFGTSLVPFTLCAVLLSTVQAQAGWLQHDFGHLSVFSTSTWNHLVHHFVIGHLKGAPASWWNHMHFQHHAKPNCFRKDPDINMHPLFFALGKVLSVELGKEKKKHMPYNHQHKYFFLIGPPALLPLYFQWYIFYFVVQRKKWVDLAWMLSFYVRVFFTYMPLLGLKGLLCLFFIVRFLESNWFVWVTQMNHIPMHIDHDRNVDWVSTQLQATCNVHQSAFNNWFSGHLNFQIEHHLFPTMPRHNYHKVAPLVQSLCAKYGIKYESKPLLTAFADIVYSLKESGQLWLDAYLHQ", "experiment": "In vitro enzyme assay for desaturase activity (hepatic microsomes), D5D", "assay_type": "biochemical", "method": "Therefore, we also confirmed that compound-326 has no effect on D9D activity. Inhibitory activity of compound-326 on rat D5D, D6D, and D9D was evaluated using hepatic microsomes prepared from SD rats (CLEA, Japan) as described previously. Assays were performed in a total volume of 30 μL in 96-well plates in a buffer containing 100 mM NaHPO4, 150 mM KCl, 10 mM NaF, 1.5 mM glutathione, 3 mM MgCl2, 1 mM NADH, 3 mM ATP, 0.3 mM CoA-SH, and 0.1% fatty acid free bovine serum albumin (BSA, Sigma, St. Louis, MO); and 0.1 μCi/well of [^14C] DGLA or [^14C] linoleic acids (ARC, St. Louis, MO) were used as substrates for measuring D5D and D6D activities, respectively. After pre-incubation of the test compound with rat liver microsomes (final 1.0 mg/mL) for 5 min, the reaction was started by the addition of NADH, ATP, and the substrates, and the reaction mixture was incubated for another 120 min at room temperature. For D9D assay, [^14C] stearoyl-CoA (PerkinElmer, Waltham, MA) was used in the absence of NADH, ATP, and CoA-SH, and D9D enzyme reaction was performed for 30 min. The reactions were then terminated by the addition of 0.63 N NaOH. […] 2.3 (Fujifilm) and IC50 values were determined using the conversion ratio from the radioactive substrates (20:3n6, 18:2n6 and 18:0) to the products (20:4n6, 18:3n6 and 18:1n9)."}, "[2]": {"tested_on": "D5D", "experiment": "Blood fatty acids (PD markers AA, DGLA, EPA, DHA) after 6-week treatment in DIO mice", "assay_type": "in vivo, C57BL/6J mice", "settings": "compound-326 0.1, 1, 10 mg/kg, 6 weeks", "method": "(§1) Fatty acids were extracted from blood and tissues by adding hexane-isopropanol-butylated hydroxytoluene (60:40:0.01, v/v/w). Samples were vortexed for 30 min. The hexane phase was removed and evaporated to dryness under nitrogen stream and vacuum. Dried samples were dissolved in methanol and analyzed by HPLC.\n(§2) Mice were fed a high-fat diet (HFD) that has 60% kcal from fat and contains 0.09% (w/w) AA (D12492; Research diets, Inc., see S1 Table for fatty acid profile) from 5 weeks of age, and they were divided into 5 groups (7 animals per group) at 11 weeks of age based on BW and daily food intake. In this experiment, 30 mg/kg sibutramine, a […], was used as a positive control for anti-obesity effects. Mice were orally administered compound-326 at doses of 0.1, 1, and 10 mg/kg, sibutramine at a dose of 30 mg/kg, or vehicle for 6 weeks. After 6 weeks, blood concentrations of DGLA and AA under non-fasting condition were evaluated as pharmacodynamics (PD) markers, and oral glucose tolerance test (OGTT) was performed."}, "[3]": {"tested_on": "DIO mice", "experiment": "Oral glucose tolerance test and HOMA-IR after 6-week treatment in DIO mice", "assay_type": "in vivo, C57BL/6J mice", "method": "as §2\nOn the last day of the experiment, mice were given an oral glucose load (2 g/kg) after overnight fasting. Blood samples were collected at specified time points of 0 (pre-glucose/fasting glucose levels), 10, 30, 60, and 120 min post glucose load for the determination of plasma glucose as well as insulin levels. Plasma glucose was enzymatically measured with auto-analyzer 7180 (Hitachi High-Technologies Corporation, Tokyo, Japan). Plasma insulin was measured with mouse insulin ELISA kit (Shibayagi, Gunma, Japan). The total area under the glucose curve was determined from time 0 to 120 min (AUC0–120 min) after glucose administration. Homeostasis model assessment-insulin […] (HOMA-IR) was calculated using the formula: [(fasted PG: mg/dL)×(fasted insulin; μU/mL)[…]/405] [28]."}, "[4]": {"tested_on": "DIO mice", "experiment": "Established DIO mice (HFD D12079B for 50 weeks), 11-week treatment: BW, calorie intake, fat mass", "assay_type": "in vivo, C57BL/6J mice", "method": "In this report, we performed 3 independent studies in DIO mice to characterize anti-obesity effects of our D5D specific inhibitor. Male C57BL/6J mice were obtained from Charles River Laboratories (Yokohama, Japan) or CLEA Japan (Osaka, Japan). The mice were fed a laboratory chow and water ad libitum and housed in a 12-h light/dark cycle. Compound or vehicle was administered once daily between 15: 00–19:00 by oral gavage. Body weight (BW) and food intake were monitored throughout the experiment.\nTo evaluate the effect on daily EE, DIO mice fed a HFD that has 41% kcal from fat and contains no AA (D12079B; Research diets, Inc., see S1 Table for fatty acids composition) for 50 weeks were used. At 55 weeks of age, DIO mice were divided into two weight-matched groups (7 animals per group) and treated with vehicle or 10 mg/kg compound-326 for 11 weeks. […] Indirect calorimetry test was performed on day1, 8, 15, 21, and 56 during the study. Daily EE was analyzed using ANCOVA with body mass as covariate. After the treatment period, mice were sacrificed and fat tissues were harvested to evaluate the weights."}, "[5]": {"tested_on": "DIO mice", "experiment": "6-week treatment of HFD (D12079B)-fed DIO mice: BW and blood/tissue fatty acids", "assay_type": "in vivo, C57BL/6J mice", "method": "as §1\nMice fed a HFD that has 41% kcal from fat and contains no AA (D12079B; Research diets, Inc.) from 5 weeks of age were divided into 2 groups at the age of 8 weeks (8 animals per group), and were administered 10 mg/kg compound-326 or vehicle for 6 weeks. After the treatment period, mice were sacrificed and epididymal and subcutaneous fats were harvested for mRNA analysis. Nine animals maintained on a standard chow (CE2, CLEA Japan, Osaka) were used as control."}, "[6]": {"settings": "10 mg/kg, after 6-week treatment"}}, "data": [{"smiles": "O=C1Cc2c(nc(OCC(F)(F)C(F)(F)F)n(-c3ccc(OCC(F)(F)F)cc3)c2=O)N1", "note": "[Compound-326, 2-(2,2,3,3,3-Pentafluoropropoxy)-3-[4-(2,2,2-trifluoroethoxy)phenyl]-5,7-dihydro-3H-pyrrolo[2,3-d]pyrimidine-4,6-dione]", "values": [{"measurement": "IC50", "setting": "[1]", "result": 72, "unit": "nM"}, {"measurement": "blood AA to DGLA ratio", "setting": "[2]", "result": "decreased significantly"}, {"measurement": "blood level of DHA", "setting": "[2]; dose dependent", "result": "decreased"}, {"measurement": "blood level of EPA", "setting": "[2]; dose dependent", "result": "decreased"}, {"measurement": "blood AA", "setting": "[2]; dose-dependent, non-fasting", "result": "decreased"}, {"measurement": "blood DGLA", "setting": "[2]; dose-dependent, non-fasting", "result": "increased"}, {"measurement": "HOMA-IR", "setting": "[3]; compound-326 0.1, 1, 10 mg/kg, after 6-week treatment, dose-dependent", "result": "decreased"}, {"measurement": "insulin levels (OGTT)", "setting": "[3]; compound-326, after 6-week treatment", "result": "no change"}, {"measurement": "glucose tolerability and insulin sensitivity", "setting": "[3]; observed from dose of 1 mg/kg without a significant decrease in BW", "result": "improvement"}, {"measurement": "daily calorie intake", "setting": "[4]; 10 mg/kg p.o., 11 weeks", "result": "slightly decreased until day 21, followed by a trend toward increase"}, {"measurement": "cumulative calorie intake", "setting": "[4]; 10 mg/kg p.o., 11 weeks (data not shown)", "result": "no appreciable change"}, {"measurement": "BW", "setting": "[4]; 10 mg/kg p.o., 11 weeks, from day 21 until day 77", "result": "sustained and significant BW reduction"}, {"measurement": "white adipose tissue (WAT) depot mass", "setting": "[4]; 10 mg/kg, 11 weeks, mesenteric fat p≤0.05, subcutaneous and epididymal fat p≤0.01 vs vehicle", "result": "marked decrease"}, {"measurement": "AA to DGLA ratio in epididymal fat", "setting": "[5]; 10 mg/kg p.o., 6 weeks", "result": "significantly decreased"}, {"measurement": "AA to DGLA ratio in the blood", "setting": "[5]; 10 mg/kg p.o., 6 weeks", "result": "decrease"}, {"measurement": "AA to DGLA ratio in the liver", "setting": "[5]; 10 mg/kg p.o., 6 weeks", "result": "significantly decreased"}, {"measurement": "n-3 PUFA (EPA and DHA) in blood, liver, and adipose tissue", "setting": "[5]; 10 mg/kg p.o., 6 weeks", "result": "significantly decreased"}, {"measurement": "BW", "setting": "[5]; 10 mg/kg p.o., 6 weeks, vs vehicle", "result": "significantly decreased"}, {"measurement": "AA in the blood as well as liver", "setting": "[5]; [6]", "result": "decrease"}, {"measurement": "DGLA in the blood as well as liver", "setting": "[5]; [6]", "result": "increase"}]}]}
